Laboratory results from patent US20070167631A1, “Novel herbicides” (priority 2003, published 2007).

Experiments:
Type in all cases: in vivo
[1] = test system: Abutilon; test: Pre-emergence herbicidal action (Example B1); conditions: 250 g/ha, after 4 weeks, rating scale 10=total damage, 0=no action
Procedure: (§1) Monocotyledonous and dicotyledonous test plants are sown in standard soil in pots or seed trays. Immediately after sowing, the test compounds, in the form of an aqueous suspension (prepared from a wettable powder (Example F3, b) according to WO 97/34485) or in the form of an emulsion (prepared from an emulsifiable concentrate (Example F1, c) according to WO 97/34485), are applied by spraying in a concentration of 250 g/ha. The test plants are then grown in a greenhouse under optimum conditions. After a test duration of 4 weeks, the test is evaluated in accordance with a scale of eleven ratings (10=total damage, 0=no action). Ratings of from 10 to 7 (especially from 10 to 8) indicate very good to good herbicidal action.

[2] = test system: Amaranthus; test: Pre-emergence herbicidal action (Example B1); conditions: 250 g/ha, after 4 weeks, rating scale 10=total damage, 0=no action
Procedure: as §1

[3] = test system: Chenopodium; test: Pre-emergence herbicidal action (Example B1); conditions: 250 g/ha, after 4 weeks, rating scale 10=total damage, 0=no action
Procedure: as §1

[4] = test system: Digitaria; test: Pre-emergence herbicidal action (Example B1); conditions: 250 g/ha, after 4 weeks, rating scale 10=total damage, 0=no action
Procedure: as §1

[5] = test system: Echinochloa; test: Pre-emergence herbicidal action (Example B1); conditions: 250 g/ha, after 4 weeks, rating scale 10=total damage, 0=no action
Procedure: as §1

[6] = test system: Panicum; test: Pre-emergence herbicidal action (Example B1); conditions: 250 g/ha, after 4 weeks, rating scale 10=total damage, 0=no action
Procedure: as §1

[7] = test system: Scirpus; test: Pre-emergence herbicidal action (Example B1); conditions: 250 g/ha, after 4 weeks, rating scale 10=total damage, 0=no action
Procedure: as §1

[8] = test system: Amaranthus; test: Post-emergence herbicidal action (Example B2); conditions: 250 g/ha, after about 18 days, rating scale 10=total damage, 0=no action
Description: (§2) Monocotyledonous and dicotyledonous test plants are cultivated in a greenhouse in standard soil in plastic pots and, at the 4- to 6-leaf stage, are sprayed with an aqueous suspension of the test compounds of formula I prepared from a 25% wettable powder (Example F3, b) according to WO 97/34485) or with an emulsion of the test compounds of formula I prepared from a 25% emulsifiable concentrate (Example F1, c) according to WO 97/34485), corresponding to concentrations of 125 and 250 g of active ingredient per hectare (500 litres of water per ha). The test plants are then grown on in the greenhouse under optimum conditions. After a test duration of about 18 days, the test is evaluated in accordance with a scale of eleven ratings (10=total damage, 0=no action). Ratings of from 10 to 7 (especially from 10 to 8) indicate very good to good herbicidal action.

[9] = test system: Chenopodium; test: Post-emergence herbicidal action (Example B2); conditions: 250 g/ha, after about 18 days, rating scale 10=total damage, 0=no action
Description: as §2

[10] = test system: Echinochloa; test: Post-emergence herbicidal action (Example B2); conditions: 250 g/ha, after about 18 days, rating scale 10=total damage, 0=no action
Description: as §2

[11] = test system: Euphorbia; test: Post-emergence herbicidal action (Example B2); conditions: 250 g/ha, after about 18 days, rating scale 10=total damage, 0=no action
Description: as §2

[12] = test system: Panicum; test: Post-emergence herbicidal action (Example B2); conditions: 250 g/ha, after about 18 days, rating scale 10=total damage, 0=no action
Description: as §2

[13] = test system: Stellaria; test: Post-emergence herbicidal action (Example B2); conditions: 250 g/ha, after about 18 days, rating scale 10=total damage, 0=no action
Description: as §2

[14] = test system: Xanthium; test: Post-emergence herbicidal action (Example B2); conditions: 250 g/ha, after about 18 days, rating scale 10=total damage, 0=no action
Description: as §2

[15] = test system: Digitaria; test: Microscreen, post-emergence herbicidal action (Example B3); conditions: 250 g/ha, evaluated after 9 or 13 days, scale of eleven ratings (10=total damage, 0=no action)
Procedure: (§3) Example B3 Microscreen, Post-Emergence Herbicidal Action Monocotyledonous and dicotyledonous test plants are sown in sterilised standard soil in seed trays each having 96 cells. After 8 to 9 days' cultivation under controlled conditions in a climatic chamber (cultivation at 17/23° C.; 13 hours' light; 50-60% humidity; after application at 19/24° C.), the plants are treated with an aqueous spray solution of 1000 mg/l of the active ingredient used ([…]; incl. 10% DMSO as solvent). The plants are grown on in the climatic chamber until the test is evaluated after 9 or 13 days. The test is evaluated in accordance with a scale of eleven ratings (10=total damage, 0=no action). Ratings of from 10 to 7 (especially from 10 to 8) indicate very good to good herbicidal action.

[16] = test system: Stellaria; test: as above; conditions: 250 g/ha, evaluated after 9 or 13 days, scale of eleven ratings (10=total damage, 0=no action)
Procedure: as §3

[17] = test system: Amaranthus; test: as above; conditions: 250 g/ha, evaluated after 9 or 13 days, scale of eleven ratings (10=total damage, 0=no action)
Procedure: (§4) Example B3 Microscreen, Post-Emergence Herbicidal Action Monocotyledonous and dicotyledonous test plants are sown in sterilised standard soil in seed trays each having 96 cells. […] The plants are grown on in the climatic chamber until the test is evaluated after 9 or 13 days. The test is evaluated in accordance with a scale of eleven ratings (10=total damage, 0=no action). Ratings of from 10 to 7 (especially from 10 to 8) indicate very good to good herbicidal action.

[18] = test system: Nasturtium; test: as above; conditions: 250 g/ha, evaluated after 9 or 13 days, scale of eleven ratings (10=total damage, 0=no action)
Procedure: as §4

[19] = test system: Solanum; test: as above; conditions: 250 g/ha, evaluated after 9 or 13 days, scale of eleven ratings (10=total damage, 0=no action)
Procedure: as §4

Row | Compound | Pre-emergence action: Abutilon [1] | Pre-emergence action: Amaranthus [2] | Pre-emergence action: Chenopodium [3] | Pre-emergence action: Digitaria [4] | Pre-emergence action: Echinochloa [5] | Pre-emergence action: Panicum [6] | Pre-emergence action: Scirpus [7] | Post-emergence action: Amaranthus [8] | Post-emergence action: Chenopodium [9] | Post-emergence action: Echinochloa [10] | Post-emergence action: Euphorbia [11] | Post-emergence action: Panicum [12] | Post-emergence action: Stellaria [13] | Post-emergence action: Xanthium [14] | Digitaria, herbicidal action rating [15] | Stellaria, herbicidal action rating [16] | Amaranthus, herbicidal action rating [17] | Nasturtium, herbicidal action rating [18] | Solanum, herbicidal action rating [19]
1 | COCCOCc1nc(C(=O)C2=C(O)CCCC2=O)ccc1C(F)(F)F [Compound 1.126] | 10 | 10 | 10 | 6 | 2 | 9 | 8 | 8 | 8 | 7 | 8 | 7 | 8 | 8 | – | – | – | – | –
2 | O=C1CCCC(O)=C1C(=O)c1ccc(C(F)(F)F)c(N2CCOCC2)n1 [Compound 1.073] | 10 | 6 | 10 | 10 | 10 | 10 | – | 10 | 8 | 9 | 9 | 10 | 9 | 9 | – | – | – | – | –
3 | Cc1nc(C(=O)C2=C(O)C(C)(C)C(=O)C(C)(C)C2=O)ccc1C(F)(F)F [Compound 2.203] | 10 | 9 | – | 5 | 9 | 6 | 8 | 6 | 6 | 9 | 9 | 9 | 9 | 9 | – | – | – | – | –
4 | CC(=O)N(C)c1nc(C(=O)C2=C(O)C(C)(C)C(=O)C(C)(C)C2=O)ccc1C(F)(F)F [Compound 2.088] | 9 | – | 7 | 9 | 7 | 9 | 0 | – | – | – | – | – | – | – | – | – | – | – | –
5 | CCN(CC)c1nc(C(=O)C2=C(O)C(C)(C)C(=O)C(C)(C)C2=O)ccc1C(F)(F)F [Compound 2.060] | – | – | – | – | – | – | – | – | – | – | – | – | – | – | 9 | 10 | 9 | 10 | 10
6 | O=C1CCCC(O)=C1C(=O)c1ccc(OCC(F)(F)F)c(N2CCOCC2)n1 [Compound 1.094] | – | – | – | – | – | – | – | – | – | – | – | – | – | – | 8 | 7 | 9 | 8 | 10
7 | CN(C(=O)c1ccccc1)c1nc(C(=O)C2=C(O)CCCC2=O)ccc1C(F)(F)F [Compound 1.091] | – | – | – | – | – | – | – | – | – | – | – | – | – | – | 2 | 6 | 8 | 9 | 9
8 | O=C1CCCC(O)=C1C(=O)c1ccc(C(F)(F)F)c(-n2cncn2)n1 [Compound 1.082] | – | – | – | – | – | – | – | – | – | – | – | – | – | – | 3 | 10 | 6 | 10 | 9
9 | Cc1cc(-c2nc(C(=O)C3=C(O)CCCC3=O)ccc2C(F)(F)F)on1 [Compound 1.204] | – | – | – | – | – | – | – | – | – | – | – | – | – | – | 8 | 10 | 10 | 10 | 10
10 | O=C1CCCC(O)=C1C(=O)c1ccc(C(F)(F)F)c(-n2cccn2)n1 [Compound 1.080] | – | – | – | – | – | – | – | – | – | – | – | – | – | – | 5 | 9 | 7 | 10 | 9
11 | CN(C(=O)c1ccccc1)c1nc(C(=O)C2=C(O)C(C)(C)C(=O)C(C)(C)C2=O)ccc1C(F)(F)F [Compound 2.090] | – | – | – | – | – | – | – | – | – | – | – | – | – | – | 2 | 8 | 6 | 10 | 10
12 | Cc1nc(C(=O)C2=C(O)CCCC2=O)ccc1C(F)(F)F [Compound 1.211] | – | – | – | – | – | – | – | – | – | – | – | – | – | – | 5 | 8 | 8 | 10 | 8
13 | CN(C)c1nc(C(=O)C2=C(O)C(C)(C)C(=O)C(C)(C)C2=O)ccc1C(F)(F)F [Compound 2.059] | 10 | 7 | 9 | 7 | 8 | 7 | – | 7 | 10 | 8 | 6 | 5 | 8 | 7 | – | – | – | – | –
14 | Cc1cc(-c2nc(C(=O)C3=C(O)C(C)(C)C(=O)C(C)(C)C3=O)ccc2C(F)(F)F)on1 [Compound 2.202] | – | – | – | – | – | – | – | – | – | – | – | – | – | – | 6 | 10 | 6 | 10 | 10
15 | CC1(c2nc(C(=O)C3=C(O)CCCC3=O)ccc2C(F)(F)F)OCCO1 [Compound 1.192] | – | – | – | – | – | – | – | – | – | – | – | – | – | – | 7 | 9 | 8 | 10 | 9
16 | N#Cc1nc(C(=O)C2=C(O)CCCC2=O)ccc1C(F)(F)F [Compound 1.212] | – | – | – | – | – | – | – | – | – | – | – | – | – | – | 3 | 7 | 7 | 8 | 8
17 | CCC(=O)N(C)c1nc(C(=O)C2=C(O)C(C)(C)C(=O)C(C)(C)C2=O)ccc1C(F)(F)F [Compound 2.089] | 9 | 8 | 0 | 8 | 8 | 9 | – | 0 | 9 | 7 | 8 | 8 | 8 | 7 | – | – | – | – | –
